Test results published in US7998940B2, “Aptamers to von Willebrand factor and their use as thrombotic disease therapeutics” (Archemix Corp., priority 2004, dated 2011).
Like-named read-outs stand apart in the source and are kept apart here. Oligonucleotides are written 5' to 3', each unit as a sugar letter and its base; * is a phosphorothioate linkage, no mark a phosphodiester; rarer units and linkages stand in square brackets, end groups in braces. Plain capitals give the bases only. [PEG] = polyethylene glycol spacer within the chain; [invdT] = inverted (3'-3') thymidine; d = 2'-deoxy (DNA); m = 2'-O-methyl

Tested on: full length human vWF (SEQ ID NO 7)
Assay: dot blot KD determination and extent of binding, full length human vWF;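 note: dot blot binding of aptamers to full length human vWF across a protein titration, incubated 30 minutes at room temperature in 1x DPBS with BSA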
Conditions: for % binding @ 100 nM vWF: extent of aptamer binding at 100 nM full length human vWF; for Kd: full length human vWF, read-out: KD
[1] = Phase 3 modification, dot blot, 8 point protein titration

Row | Substance | % binding @ 100 nM vWF (Phase 3 modification) [%] | Kd [1] [nM] | % binding @ 100 nM vWF (Phase 4 and 5 modification) [%] | Kd (Phase 4 and 5 modification) [nM] | also measured
1 | ARC1369: ARC1361 with single phosphorothioate phosphate backbone modification (mGmCmGmUdGdCdAmGmUmGmCmCmUmUmCmGmGmCdCmGdT*mGdCdGdGdTmGmCdCmUdCdCmGmUdCmAmCmGmC[invdT]; aptamer) | 26.2 | 16.3 |  |  | 
2 | ARC1370: ARC1361 with single phosphorothioate phosphate backbone modification (mGmCmGmUdGdCdAmGmUmGmCmCmUmUmCmGmGmCdCmGdTmG*dCdGdGdTmGmCdCmUdCdCmGmUdCmAmCmGmC[invdT]; aptamer) | 22.5 | 10.1 |  |  | 
3 | ARC1371: ARC1361 with single phosphorothioate phosphate backbone modification (mGmCmGmUdGdCdAmGmUmGmCmCmUmUmCmGmGmCdCmGdTmGdC*dGdGdTmGmCdCmUdCdCmGmUdCmAmCmGmC[invdT]) | 32.1 | 8.4 |  |  | 
4 | ARC1372: ARC1361 with single phosphorothioate phosphate backbone modification (mGmCmGmUdGdCdAmGmUmGmCmCmUmUmCmGmGmCdCmGdTmGdCdG*dGdTmGmCdCmUdCdCmGmUdCmAmCmGmC[invdT]; aptamer) | 35.2 | 23.5 |  |  | 
5 | ARC1373: ARC1361 with single phosphorothioate phosphate backbone modification (mGmCmGmUdGdCdAmGmUmGmCmCmUmUmCmGmGmCdCmGdTmGdCdGdG*dTmGmCdCmUdCdCmGmUdCmAmCmGmC[invdT]; aptamer) | 33.0 | 7.1 |  |  | 
6 | ARC1374: ARC1361 with single phosphorothioate phosphate backbone modification (mGmCmGmUdGdCdAmGmUmGmCmCmUmUmCmGmGmCdCmGdTmGdCdGdGdT*mGmCdCmUdCdCmGmUdCmAmCmGmC[invdT]; aptamer) | 27.2 | 9.5 |  |  | 
7 | ARC1375: ARC1361 with single phosphorothioate phosphate backbone modification (mGmCmGmUdGdCdAmGmUmGmCmCmUmUmCmGmGmCdCmGdTmGdCdGdGdTmGmC*dCmUdCdCmGmUdCmAmCmGmC[invdT]; aptamer) | 25.5 | 8.8 |  |  | 
8 | ARC1376: ARC1361 with single phosphorothioate phosphate backbone modification (mGmCmGmUdGdCdAmGmUmGmCmCmUmUmCmGmGmCdCmGdTmGdCdGdGdTmGmCdC*mUdCdCmGmUdCmAmCmGmC[invdT]; aptamer) | 31.3 | 4.4 |  |  | 
9 | ARC1377: ARC1361 with single phosphorothioate phosphate backbone modification (mGmCmGmUdGdCdAmGmUmGmCmCmUmUmCmGmGmCdCmGdTmGdCdGdGdTmGmCdCmU*dCdCmGmUdCmAmCmGmC[invdT]; aptamer) | 30.9 | 7.4 |  |  | 
10 | ARC1378: ARC1361 with single phosphorothioate phosphate backbone modification (mGmCmGmUdGdCdAmGmUmGmCmCmUmUmCmGmGmCdCmGdTmGdCdGdGdTmGmCdCmUdC*dCmGmUdCmAmCmGmC[invdT]; aptamer) | 31.1 | 9.1 |  |  | 
11 | ARC1379: ARC1361 with single phosphorothioate phosphate backbone modification (mGmCmGmUdGdCdAmGmUmGmCmCmUmUmCmGmGmCdCmGdTmGdCdGdGdTmGmCdCmUdCdC*mGmUdCmAmCmGmC[invdT]; aptamer) | 31.3 | 10.4 |  |  | 
12 | ARC1380: ARC1361 with single phosphorothioate phosphate backbone modification (mGmCmGmUdGdCdAmGmUmGmCmCmUmUmCmGmGmCdCmGdTmGdCdGdGdTmGmCdCmUdCdCmGmU*dCmAmCmGmC[invdT]) | 32.5 | 12 |  |  | 
13 | ARC1381: ARC1361 with single phosphorothioate phosphate backbone modification (mGmCmGmUdGdCdAmGmUmGmCmCmUmUmCmGmGmCdCmGdTmGdCdGdGdTmGmCdCmUdCdCmGmUdC*mAmCmGmC[invdT]) | 35.8 | 8.7 |  |  | 
14 | dGdGdCdGTdGdCdAdGTdGdCdCTTdCdGdGdCdCdG-s-TdGdCdGdGTdGdCdCTdCdCdGTdCdAdCdGdCdC-3T (dGdGdCdGdTdGdCdAdGdTdGdCdCdTdTdCdGdGdCdCdG*dTdGdCdGdGdTdGdCdCdTdCdCdGdTdCdAdCdGdCdC[invdT]) [ARC1759] |  |  | 46 | 0.7 | binding to human vWF (in words, dot blot): measurable improvement in affinity relative to ARC1172
15 | dGdGdCdGTdGdCdAdGTdGdCdCTTdCdGdGdCdCdGTmGdCdGdGTmGmCdCmUdCdCmGmUmCdAdCdGdCdC-3T (dGdGdCdGdTdGdCdAdGdTdGdCdCdTdTdCdGdGdCdCdGdTmGdCdGdGdTmGmCdCmUdCdCmGmUmCdAdCdGdCdC[invdT]; aptamer) [ARC1340] |  |  |  |  | % binding @ 100 nM vWF (Phase 2 modification): 43%; Kd (Phase 2 modification): 7.4 nM
16 | dGdGdCdGTdGdCdAmGmUdGdCdCTTdCdGdGdCdCmGTmGdCdGdGTdGdCdCTdCdCmGmUmCdAdCdGdCdC-3T (dGdGdCdGdTdGdCdAmGmUdGdCdCdTdTdCdGdGdCdCmGdTmGdCdGdGdTdGdCdCdTdCdCmGmUmCdAdCdGdCdC[invdT]; aptamer) [ARC1339] |  |  |  |  | % binding @ 100 nM vWF (Phase 2 modification): 39%; Kd (Phase 2 modification): 2.4 nM
17 | mCmCmGmGmCdCmG-s-TmGdCdGdGTmGmCdCmUdCdCmGmUdCmAmCmGmUmUmCmCmGmUdGdCdAmGmUmGmCmCmGmG-3T (mCmCmGmGmCdCmG*dTmGdCdGdGdTmGmCdCmUdCdCmGmUdCmAmCmGmUmUmCmCmGmUdGdCdAmGmUmGmCmCmGmG[invdT]; aptamer) [ARC1546] |  |  | 26 | 24 | 
18 | mCmCmGmGmCdCmG-s-TmGdCdGdGTmGmCdCmUdCdCmGmUmCmAmCmUmUmUmGmUdGdCdAmGmUmGmCmCmGmG-3T (mCmCmGmGmCdCmG*dTmGdCdGdGdTmGmCdCmUdCdCmGmUmCmAmCmUmUmUmGmUdGdCdAmGmUmGmCmCmGmG[invdT]; aptamer) [ARC1535] |  |  | 48.3 | 27.1 | 
19 | mCmGmGmCdCmG-s-TmGdCdGdGTmGmCdCmUdCdCmGmUmCmAmCmUmUmUmGmUdGdCdAmGmUmGmCmCmG-3T (mCmGmGmCdCmG*dTmGdCdGdGdTmGmCdCmUdCdCmGmUmCmAmCmUmUmUmGmUdGdCdAmGmUmGmCmCmG[invdT]; aptamer) [ARC1534] |  |  | 25.6 | 62.8 | 
20 | mCmGmUdGdCdAmGmUmGmCmCPEGmGmGmCdCmG-s-TmGdCdGdGTmGmCdCmUdCdCmGmUdCmAmCmG-3T (mCmGmUdGdCdAmGmUmGmCmC[PEG]mGmGmCdCmG*dTmGdCdGdGdTmGmCdCmUdCdCmGmUdCmAmCmG[invdT]; aptamer) [ARC1531] |  |  | 20.0 | 1.5 | 
21 | mCmGmUdGdCdAmGmUmGmCmCPEGmGmGmCdCmG-s-TmGdCdGdGTmGmCdCmUdCdCmGmUmCmAmCmG-3T (mCmGmUdGdCdAmGmUmGmCmC[PEG]mGmGmCdCmG*dTmGdCdGdGdTmGmCdCmUdCdCmGmUmCmAmCmG[invdT]; aptamer) [ARC1532] |  |  | 19.3 | 2.6 | 
22 | mCmGmUdGdCdAmGmUmGmCmCmUmUmCmGmGmCdCmG-s-TmGdCdGdGTmGmCdCmUdCdCmGmUmCmAmCmG-3T (mCmGmUdGdCdAmGmUmGmCmCmUmUmCmGmGmCdCmG*dTmGdCdGdGdTmGmCdCmUdCdCmGmUmCmAmCmG[invdT]; aptamer) [ARC1529] |  |  | 22.6 | 12.3 | 
